Values after ≈ are worked out from the molar mass of the structure shown. “Also recorded” adds a separate entry of the source. Read-outs that look alike come from different tables or passages of the source.
How the values were obtained:
M. tuberculosis Erdman [1] = details: mice, bacterial load in lung or spleen; cited from earlier work
M. tuberculosis [2] = details: cited from earlier work
M. tuberculosis [3] = test: Antibacterial growth assay; assay type: cell-based, Mycobacterium tuberculosis
M. tuberculosis Erdman [4] = test: Rapid M. tuberculosis animal model of efficacy; assay type: in vivo, Mycobacterium tuberculosis; details: for reduction of bacterial counts in the spleen: GKO C57BL/6 mice, IP, 10 days of treatment, compared to untreated controls; for efficacy in rapid murine model of TB infection: mice, IP delivery, bacterial CFUs in spleen
wild-type InhA [5] = molecular target: T1, wild-type InhA (Mycobacterium tuberculosis, UniProt P9WGR1); test: InhA progress curve assays; assay type: biochemical; details: for Slow-onset: Yes/No
T1 sequence (P9WGR1 whole entry, looked up): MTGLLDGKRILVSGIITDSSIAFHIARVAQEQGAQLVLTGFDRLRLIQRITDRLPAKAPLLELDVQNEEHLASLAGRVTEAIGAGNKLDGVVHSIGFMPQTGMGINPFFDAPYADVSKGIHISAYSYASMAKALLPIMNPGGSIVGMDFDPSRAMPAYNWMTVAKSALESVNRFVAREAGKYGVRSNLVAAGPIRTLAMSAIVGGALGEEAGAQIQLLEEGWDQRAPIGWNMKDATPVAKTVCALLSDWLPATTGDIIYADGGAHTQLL

wild-type InhA [6] = molecular target: T1, wild-type InhA; test: InhA enzyme inhibition, steady state kinetics; assay type: biochemical
wild-type InhA [7] = molecular target: T1, wild-type InhA; details: cited from earlier work
[8] = Table 1, lowest concentration inhibiting visible growth
[9] = Table 1, slow-onset (time-dependent) inhibition of InhA

For `CCCCCCc1ccc(Oc2ccccc2)c(O)c1` [PT004], the “efficacy in rapid murine model of TB infection” value (“efficacy in rapid murine model” below) (M. tuberculosis Erdman [1]) is given as “failed to observe a significant reduction in bacterial load; also recorded: did not show efficacy; also recorded: did not significantly reduce the bacterial load; also recorded: does not demonstrate efficacy; also recorded: lack of efficacy”, the “bacterial load in rapid macrophage model of TB infection” value (M. tuberculosis [2]) is given as “had efficacy in a macrophage TB assay; also recorded: reduced the bacterial load” and the MIC (M. tuberculosis [3]; [8]) is given as 2.1 µg/mL (≈ 7.77 µM). For the same compound, the MIC (M. tuberculosis [3]; Table 2) was 2.1 ± 0.9 µg/mL (≈ 7.77 µM).

In the case of `CCCCCCc1ccc(Oc2ccccc2[N+](=O)[O-])c(O)c1` [PT010], the MIC (M. tuberculosis [3]; [8]) is reported as 12.50 µg/mL (≈ 39.6 µM).

`CCCCCCc1ccc(Oc2ccccc2N)c(O)c1` [PT013] showed an MIC (M. tuberculosis [3]; [8]) of 3.13 µg/mL (≈ 11 µM).

In the case of `CCCCCCc1ccc(Oc2ccccc2C)c(O)c1` [PT070], the “reduction of bacterial counts in the spleen” value (M. tuberculosis Erdman [4]) is reported as 0.57 ± 0.26 log10, the “efficacy in rapid murine model” value (M. tuberculosis Erdman [4]) is reported as “demonstrated efficacy” and the Ki (wild-type InhA [5]; Table 1) is reported as 0.044 ± 0.005 nM. The “residence time” value (wild-type InhA [5]; Table 1) was 24 ± 2 min, the Slow-onset (wild-type InhA [5]; [9]) was “slow onset and Yes” and the IC50 (wild-type InhA [6]; Table 1, enzyme concentration 100 nM) was 50.7 ± 4 nM. The “residence time on InhA” value (wild-type InhA [7]) was 24 min, the MIC (M. tuberculosis [3]; [8]) was 3.125 µg/mL (≈ 11 µM) and the MIC (M. tuberculosis [3]; Table 2) was 3.125 µg/mL (≈ 11 µM).

For `CCCCCCc1ccc(Oc2ccccn2)c(O)c1` [PT077], the MIC (M. tuberculosis [3]; Table 3) was 3.13 µg/mL (≈ 11.5 µM).

For `CCCCCCc1ccc(Oc2ccccc2Cl)c(O)c1` [PT091, 2-(2-Chlorophenoxy)-5-hexylphenol], the “reduction of bacterial counts in the spleen” value (M. tuberculosis Erdman [4]) was 0.69 ± 0.22 log10, the “efficacy in rapid murine model” value (M. tuberculosis Erdman [4]) was “demonstrated efficacy” and the residence time (wild-type InhA [5]) was 21 ± 3 min. The Slow-onset (wild-type InhA [5]; [9]) was “slow onset and Yes” and the MIC (M. tuberculosis [3]; Mycobacterium tuberculosis) was 1.56 µg/mL (≈ 5.12 µM).

In the case of `CCCCCCc1ccc(Oc2ccccc2Br)c(O)c1` [PT092, 2-(2-Bromophenoxy)-5-hexylphenol], the residence time (wild-type InhA [5]) is reported as 30 ± 3 min, the Slow-onset (wild-type InhA [5]; [9]) is reported as “Yes” and the MIC (M. tuberculosis [3]; Mycobacterium tuberculosis) is reported as 3.12 µg/mL (≈ 8.95 µM).

With `CCCCCCc1ccc(Oc2ccccc2C(F)(F)F)c(O)c1` [PT095, 5-Hexyl-2-(2-(trifluoromethyl)phenoxy)phenol] the Slow-onset (wild-type InhA [5]; [9]) was “No”, the IC50 (wild-type InhA [6]) was 29.7 ± 1.2 nM and the MIC (M. tuberculosis [3]; Mycobacterium tuberculosis) was 50 µg/mL (≈ 148 µM).

For `CCCCCCc1ccc(Oc2ccccc2I)c(O)c1` [PT096, 5-Hexyl-2-(2-iodophenoxy)phenol], the Ki (wild-type InhA [5]) was 3.72 ± 5.13 nM, the Slow-onset (wild-type InhA [5]; [9]) was “No” and the IC50 (wild-type InhA [6]) was 44.6 ± 7.5 nM. It also gave an MIC (M. tuberculosis [3]; Mycobacterium tuberculosis) of 25 µg/mL (≈ 63.1 µM).

With `CCCCCCc1ccc(Oc2ccc([N+](=O)[O-])cc2C)c(O)c1` [PT107, 5-Hexyl-2-(2-methyl-4-nitrophenoxy)phenol] the Ki (wild-type InhA [5]) was 0.13 ± 0.03 nM, the IC50 (wild-type InhA [6]) was 50 ± 5 nM and the MIC (M. tuberculosis [3]; Mycobacterium tuberculosis) was 6.25 µg/mL (≈ 19 µM).

In the case of `CCCCCCc1ccc(Oc2c(C)cccc2C)c(O)c1` [PT108, 2-(2,6-Dimethylphenoxy)-5-hexylphenol], the IC50 (wild-type InhA [6]) is reported as 1570 ± 200 nM and the MIC (M. tuberculosis [3]; Mycobacterium tuberculosis) is reported as 100 µg/mL (≈ 335 µM).

With `CCCCCCc1ccc(Oc2c(Cl)cccc2Cl)c(O)c1` [PT109, 2-(2,6-Dichlorophenoxy)-5-hexylphenol] the IC50 (wild-type InhA [6]) was 86 ± 6 nM and the MIC (M. tuberculosis [3]; Mycobacterium tuberculosis) was 25 µg/mL (≈ 73.7 µM).

With `CCCCCCc1ccc(Oc2c(C)cccc2N)c(O)c1` [PT110, 2-(2-Amino-6-methylphenoxy)-5-hexylphenol] the MIC (M. tuberculosis [3]; Mycobacterium tuberculosis) was greater than 100 µg/mL and the MIC (M. tuberculosis [3]; Table 2) was “total loss”.

Work on `CCCCCCc1ccc(Oc2c(F)cccc2C#N)c(O)c1` [PT111, 3-Fluoro-2-(4-hexyl-2-hydroxyphenoxy) benzonitrile] yielded an IC50 (wild-type InhA [6]) of 100 ± 9 nM and an MIC (M. tuberculosis [3]; Mycobacterium tuberculosis) of 25 µg/mL (≈ 79.8 µM).

For `CCCCCCc1ccc(Oc2cnccc2N)c(O)c1` [PT112, 2-((4-Aminopyridin-3-yl)oxy)-5-hexylphenol], the IC50 (wild-type InhA [6]) was 69000 ± 700 nM, the “fold increase in IC50 value, amino group compared to fluorine group” value (wild-type InhA [6]; PT013 vs. PT113, PT112 vs. PT161) was 1700 fold and the “fold difference in IC50 value between PT134 and PT112” value (wild-type InhA [6]; PT134 (2'- and 4'-N) vs 4'-N analogue PT112) was 300 fold. It also gave an MIC (M. tuberculosis [3]; Mycobacterium tuberculosis) of 50 µg/mL (≈ 175 µM).

In the case of `CCCCCCc1ccc(Oc2ccccc2F)c(O)c1` [PT113, 2-(2-Fluorophenoxy)-5-hexylphenol], the Ki (wild-type InhA [5]) is reported as 0.09 ± 0.02 nM, the residence time (wild-type InhA [5]) is reported as 9 ± 3 min and the Slow-onset (wild-type InhA [5]; [9]) is reported as “Yes”. For the same compound, the IC50 (wild-type InhA [6]) was 12.1 ± 4.8 nM and the MIC (M. tuberculosis [3]; Mycobacterium tuberculosis) was 1.56 µg/mL (≈ 5.41 µM).

In the case of `CCCCCCc1ccc(Oc2ccccc2O)c(O)c1` [PT114, 5-Hexyl-2-(2-hydroxyphenoxy)phenol], the Ki (wild-type InhA [5]) is reported as 15.9 ± 3.7 nM, the Slow-onset (wild-type InhA [5]; [9]) is reported as “No” and the IC50 (wild-type InhA [6]) is reported as 48 ± 3 nM. The MIC (M. tuberculosis [3]; Mycobacterium tuberculosis) was 12.5 µg/mL (≈ 43.6 µM).

With `CCCCCCc1ccc(Oc2cnccc2C#N)c(O)c1` [PT115, 3-(4-Hexyl-2-hydroxyphenoxy)isonicotinonitrile] the residence time (wild-type InhA [5]) was greater than 20 min, the Slow-onset (wild-type InhA [5]; Table 3) was “Yes” and the IC50 (wild-type InhA [6]) was 891 ± 106 nM. The MIC (M. tuberculosis [3]; Mycobacterium tuberculosis) was 12.5 µg/mL (≈ 42.2 µM).

Work on `CCCCCCc1ccc(Oc2cnccc2C(=O)O)c(O)c1` [PT116, 3-(4-Hexyl-2-hydroxyphenoxy)isonicotinic acid] yielded an IC50 (wild-type InhA [6]) greater than 12000 nM and an MIC (M. tuberculosis [3]; Mycobacterium tuberculosis) of 25 µg/mL (≈ 79.3 µM).

For `CCCCCCc1ccc(Oc2ccccc2C#N)c(O)c1` [PT119, 2-(4-Hexyl-2-hydroxyphenoxy)benzonitrile], the residence time (wild-type InhA [5]) was 80 ± 12 min, the Slow-onset (wild-type InhA [5]; [9]) was “Yes” and the “fold reduction of binding affinity compared to PT070” value (wild-type InhA [5]; ratio of Ki) was ~ 50 fold. For the same compound, the MIC (M. tuberculosis [3]; Mycobacterium tuberculosis) was 2.5 µg/mL (≈ 8.46 µM).

Work on `CCCCCCc1ccc(Oc2c(F)cccc2Cl)c(O)c1` [PT133, 2-(2-Chloro-6-fluorophenoxy)-5-hexylphenol] yielded an IC50 (wild-type InhA [6]) of 79.7 ± 24.4 nM and an MIC (M. tuberculosis [3]; Mycobacterium tuberculosis) of 25 µg/mL (≈ 77.4 µM).

`CCCCCCc1ccc(Oc2cncnc2N)c(O)c1` [PT134, 2-((4-Aminopyrimidin-5-yl)oxy)-5-hexylphenol] gave an IC50 (wild-type InhA [6]) of 239 ± 46.8 nM and an MIC (M. tuberculosis [3]; Mycobacterium tuberculosis) of 3.12 µg/mL (≈ 10.9 µM).

For `CCCCCCc1ccc(Oc2cccnc2F)c(O)c1` [PT161, 2-((2-Fluoropyridin-3-yl)oxy)-5-hexylphenol], the Slow-onset (wild-type InhA [5]; Table 3) was “slow-onset inhibition and Yes”, the IC50 (wild-type InhA [6]) was 40 ± 20 nM and the MIC (M. tuberculosis [3]; Mycobacterium tuberculosis) was 0.312 µg/mL (≈ 1.08 µM).

In the case of `CCCCCCc1ccc(Oc2cccnc2C#N)c(O)c1` [PT164, 3-(4-Hexyl-2-hydroxyphenoxy)picolinonitrile], the Slow-onset (wild-type InhA [5]; Table 3) is reported as “slow-onset inhibition and Yes”, the IC50 (wild-type InhA [6]) is reported as 308 ± 4.2 nM and the MIC (M. tuberculosis [3]; Mycobacterium tuberculosis) is reported as less than 0.39 µg/mL.

— publication PMC4126670 (ChemMedChem, 2014)
